This is an account of results in patent US5585382A, “Polycyclic and heterocyclic chromophores for bis-imide tumoricidals” (The DuPont Merck Pharmaceutical Company, priority 1995, dated 1996).

SMILES strings stand for the structures. Read-outs that look alike come from different tables or passages of the source.

The test system of data set [1] is Clone A human colon cancer cells. Briefly: In vitro growth inhibition of Clone A cells (MTT, 72 hr). In kind it is cell-based. Conditions: read-out: Clone A IC50. The procedure, abridged: (§1)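 Cells seeded on day 0 (1×10^3 L1210 or 8×10^2 Clone A per well), graded compound concentrations added on day 1, then 72 hr at 37 °C. MTT 4 h, formazan dissolved in acidic isopropanol, read at 570/630 nm; IC50 from curve fit as half-maximal inhibition of population doublings, eight replicates.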

Another data set concerns DLD-2 human colon tumor. Briefly: In vivo human tumor xenograft DLD-2 in nude mice. Conditions: for Tumor Growth Inhibition activity against DLD-2 (in words): NCI criteria. The source says: (§2) The DLD-2 human colon tumor and MX-1 human mammary carcinoma, were originally obtained from a surgically-removed primary colon carcinoma or breast tumor respectively. The human tumor lines were maintained by serial passage in athymic nude mice. The MX-1 human mammary carcinoma is an established tumor used by the NCI. The DLD-2 human colon tumor has been well characterized. (Dexter, D. L.; Spremulli, E. N.; Matook, G. M.; Diamond, I.; Calabresi, P. Cancer Research 1982, 42, 5010; Dexter, D. L.; Barbosa, J. A.; Calabresi, P. Cancer Research 1979, 39, 1020.)
(§3) The mice used in these experiments were outbred Swiss mice or CD-1 mice bearing the nude (nu/nu) gene. On Day 0, male and female mice weighing 22-30 g are inoculated with 0.2 mL of a 25% tumor mince. This mince is prepared by mincing fresh tumor tissue, grown subcutaneously in passage mice, in sterile physiological saline. Palpable tumors weighing approximately 50 mg appear in the mice within 7-10 days after inoculation. The mice are pair matched by tumor weight and sex into groups of ten each and the test compounds and vehicle control are administered intravenously (i.v.) once daily for nine consecutive days. A >20% decrease in body weight on Day 5 following compound administration is considered an indication of toxicity. Tumor measurements and body weights are recorded once a week. Fifteen to eighteen days after the initial injection the mice are weighed, sacrificed, and the tumors excised and weighed.
(§4) The efficacy of the test compounds is determined by the extent of tumor growth inhibition in treated versus vehicle-treated control mice. Initial tumor weights (mg) are calculated from the tumor dimensions (mm) obtained from caliper measurements, using the formula for a prolate ellipsoid (mg of tumor weight=(length×width^2)/2). Net tumor weights are calculated for each of the treated groups and the vehicle-treated control group by subtracting the initial tumor weight from the final tumor weight (Day 15-18). Results are expressed as a percentage decrease relative to the mean tumor weight for the control vehicle-treated group.
(§5) Tumor Growth Inhibition= [formula]
(§6) The evaluation criteria of the National Cancer Institute for activity in in vivo cancer models were used. Tumor growth inhibition of 58-89% against the various xenografts is considered moderate activity, and inhibition of ≥90% is considered good to excellent activity. Actual tumor regressions (IR=incomplete regression; FR=full regression) indicate excellent to outstanding activity.
For orientation: Xenograft models place foreign cells or tissue in a host animal.

Data set [2] has as its system Murine leukemia L1210 cells. Briefly: In vitro growth inhibition of L1210 cells (MTT, 72 hr). In kind it is cell-based. Particulars: Mus musculus, read-out: L1210 IC50. The procedure, abridged: as §1
Data set [3] concerns MX-1 human mammary carcinoma. In words: In vivo human tumor xenograft MX-1 in nude mice. Particulars: for Tumor Growth Inhibition activity against MX-1 (in words): NCI criteria.
Description: as §2, §3, §4, §5, §6

The mark [4] stands for this setting: Mus musculus, DLD2, iv, 216 h, read-out: DLD-2 percent tumor growth inhibition.
The mark [5] stands for this setting: i.v. once daily for nine days, nude mice.
Setting [6] is: Mus musculus, iv, 216 h, read-out: MX-1 percent tumor growth inhibition.

For orientation: IC50 means the concentration that inhibits the measured activity by half. The solubility is the dissolved amount per volume that the medium holds.

`CS(=O)(=O)O.O=C1c2cccc3cc([N+](=O)[O-])cc(c23)C(=O)N1CCCCNCCCN1C(=O)c2cc([N+](=O)[O-])cc3c2c(cc2cccnc23)C1=O` [Example 111, 4-[3-(3-Nitro-5-azaphenanthrene-1,10-dicarboximido)propylamino]-1-(3-nitronaphthalene-1,8-dicarboximido)butane Hydromethanesulfonate]: the IC50 was found to be 2 ng/mL in data set [1] (72 h) and 3 ng/mL in data set [2] (L1210, 72 h). Also, the “DLD-2 tumor regressions, IR=incomplete regression” value in the data set on DLD-2 human colon tumor (18 mg/kg, i.v. once daily for nine days, nude mice) is on record as 2/7. Further, the inhibition in vivo at 18 mg/kg with DLD-2 human colon tumor (setting [4]) stood at 99%. For the same compound, the “Tumor Growth Inhibition activity against DLD-2 (in words)” value in the data set with DLD-2 human colon tumor (setting [5]) is “moderate to excellent”. In “Solubility in water”, the solubility is 240 µg/mL. The “MX-1 tumor regressions, FR=full regression” value in data set [3] (20 mg/kg, i.v. once daily for nine days, nude mice) is given as 1/9. In addition, in data set [3] (setting [6]), the inhibition in vivo at 20 mg/kg was 99%. Further, in data set [3] (Mus musculus, iv, 216 h, read-out: MX-1 tumor regressions, IR=incomplete regression), the responders at 20 mg/kg was 77.8%. Also, in data set [3] (setting [5]), the “Tumor Growth Inhibition activity against MX-1 (in words)” value is “moderate to excellent”.
Consider `CS(=O)(=O)O.O=C1c2cc([N+](=O)[O-])cc3c2c(cc2cccnc23)C(=O)N1CCCCNCCCN1C(=O)c2cc([N+](=O)[O-])cc3c2c(cc2cccnc23)C1=O` [Example 5, 4-[3-(3-Nitro-5-azaphenanthrene-1, 10-dicarboximido)propylamino]-1-(3-nitro-5-azaphenanthrene-1, 10-dicarboximido)butane Hydromethanesulfonate], for which the IC50 in data set [1] (72 h) is 13 ng/mL; in data set [2] (L1210, 72 h), 6 ng/mL. For the same compound, in the data set with DLD-2 human colon tumor (setting [4]), the inhibition in vivo at 10 mg/kg came out at 82%. The “Tumor Growth Inhibition activity against DLD-2 (in words)” value with DLD-2 human colon tumor (setting [5]) was “moderate to excellent”. The same compound had a solubility in the data set “Solubility in water” of 60 µg/mL.
Consider `CS(=O)(=O)O.O=C1c2cccc3c2c(cc2ncccc23)C(=O)N1CCCCNCCCN1C(=O)c2cccc3c2c(cc2ncccc23)C1=O` [Example 17, 4-[3-(8-Azaphenanthrene-1,10-dicarboximido)propylamino]-1-(8-azaphenanthrene-1,10-dicarboximido) butane Hydromethanesulfonate], for which the IC50 is 1 ng/mL in data set [1] (Clone A cells, 72 hr, MTT) and 1 ng/mL in data set [2] (L1210 cells, 72 hr, MTT). Further, the inhibition in vivo at 6.2 mg/kg in the data set with DLD-2 human colon tumor (Mus musculus, DLD2, iv, 216 h, 6.2 mg/kg, i.v. once daily for nine days, nude mice, read-out: DLD-2 percent tumor growth inhibition) turned out to be 59%. In addition, the “Tumor Growth Inhibition activity against DLD-2 (in words)” value in the data set on DLD-2 human colon tumor (setting [5]) was “moderate to excellent”.
Take `CS(=O)(=O)O.CS(=O)(=O)O.Cc1nc2cc3c4c(cccc4c2[nH]1)C(=O)N(CCCNCCCCN1C(=O)c2cccc4cc([N+](=O)[O-])cc(c24)C1=O)C3=O` [Example 140, 4-[3-(2-Methyl-1H-naphth[1,2-d]imidazole-5,6-dicarboximido)propylamino]-1-(3-nitronaphthalene-1,8-dicarboximido)butane Dihydromethanesulfonate]: the IC50 in data set [1] (Clone A cells, 72 hr, MTT) came out at 101 ng/mL; in data set [2] (L1210 cells, 72 hr, MTT), 425 ng/mL. Also, the inhibition in vivo at 50 mg/kg with DLD-2 human colon tumor (Mus musculus, DLD2, iv, 216 h, 50 mg/kg, i.v. once daily for nine days, nude mice, read-out: DLD-2 percent tumor growth inhibition) worked out at 0%. The compound also yielded a solubility in the data set “Solubility in water” of 9000 µg/mL.
Take `CS(=O)(=O)O.O=C1c2cc([N+](=O)[O-])cc3c2c(cc2ncccc23)C(=O)N1CCCCNCCCN1C(=O)c2cc([N+](=O)[O-])cc3c2c(cc2ncccc23)C1=O` [Example 18, 4-[3-(3-Nitro-8-azaphenanthrene-1,10-dicarboximido)propylamino]-1-(3-nitro-8-azaphenanthrene-1, 10-dicarboximido)butane Hydromethanesulfonate]: the IC50 turned out to be 7 ng/mL in data set [1] (72 h) and 1 ng/mL in data set [2] (L1210, 72 h). Besides, the inhibition in vivo at 12.5 mg/kg in the data set on DLD-2 human colon tumor (setting [4]) stood at 84%. The “Tumor Growth Inhibition activity against DLD-2 (in words)” value in the data set on DLD-2 human colon tumor (setting [5]) was “moderate to excellent”. In “Solubility in water”, this compound returned a solubility of 20 µg/mL.
The matching figures for `CS(=O)(=O)O.CS(=O)(=O)O.C[C@@H](CNCCNC[C@H](C)N1C(=O)c2cc([N+](=O)[O-])cc3c2c(cc2cccnc23)C1=O)N1C(=O)c2cc([N+](=O)[O-])cc3c2c(cc2cccnc23)C1=O` [Example 7, (S,S)-1,2-bis-[2-(3-Nitro-5-azaphenanthrene-1,10-dicarboximido)propylamino]ethane Dihydromethanesulfonate]: 28 ng/mL, 48 ng/mL, 83%, “moderate to excellent” and 680 µg/mL.
With `CS(=O)(=O)O.O=C1c2cc([N+](=O)[O-])cc3c2c(cc2cccnc23)C(=O)N1CCCNCCN1C(=O)c2cc([N+](=O)[O-])cc3c2c(cc2cccnc23)C1=O` [Example 3, 3-[2-(3-Nitro-5-azaphenanthrene-1,10-dicarboximido)ethylamino]-1-(3-nitro-5-azaphenanthrene-1, 10-dicarboximido) propane Hydromethanesulfonate], the IC50 came out at 4 ng/mL in data set [1] (72 h) and 6 ng/mL in data set [2] (L1210, 72 h). The inhibition in vivo at 20 mg/kg in the data set on DLD-2 human colon tumor (setting [4]) was determined as 92%. In addition, the “Tumor Growth Inhibition activity against DLD-2 (in words)” value with DLD-2 human colon tumor (setting [5]) is reported as “moderate to excellent”. The compound also displayed a solubility in “Solubility in water” of 80 µg/mL.
Regarding `CS(=O)(=O)O.CS(=O)(=O)O.O=C1c2cc([N+](=O)[O-])cc3c2c(cc2ncccc23)C(=O)N1CCNCCNCCN1C(=O)c2cc([N+](=O)[O-])cc3c2c(cc2ncccc23)C1=O` [Example 19, 1,2-bis-[2-(3-Nitro-8-azaphenanthrene-1,10-dicarboximido)ethylamino]ethane Dihydromethanesulfonate], the IC50 in data set [1] (72 h) was found to be 9 ng/mL; in data set [2] (L1210, 72 h), 13 ng/mL. In “Solubility in water”, this compound came in with a solubility of 950 µg/mL. For the same compound, the inhibition in vivo at 6 mg/kg in data set [3] (setting [6]) stood at 84%. In addition, in data set [3] (setting [5]), the “Tumor Growth Inhibition activity against MX-1 (in words)” value is “moderate to excellent”.
On to `CS(=O)(=O)O.O=C1c2cc([N+](=O)[O-])cc3c2c(cc2cccnc23)C(=O)N1CCCNCCCN1C(=O)c2cc([N+](=O)[O-])cc3c2c(cc2cccnc23)C1=O` [Example 4, 3-[3-(3-Nitro-5-azaphenanthrene-1,10-dicarboximido)propylamino]-1-(3-nitro-5-azaphenanthrene-1, 10-dicarboximido)propane Hydromethanesulfonate], for which the IC50 was found to be 5 ng/mL in data set [1] (72 h) and 11 ng/mL in data set [2] (L1210, 72 h). The inhibition in vivo at 10 mg/kg in the data set with DLD-2 human colon tumor (setting [4]) stood at 57%. The solubility in “Solubility in water” is 450 µg/mL.
Consider `O=C1c2cc([N+](=O)[O-])cc3c2c(cc2cccnc23)C(=O)N1CCNCCN1C(=O)c2cc([N+](=O)[O-])cc3c2c(cc2cccnc23)C1=O` [Example 2, 2-[3-(3-Nitro-5-azaphenanthrene-1,10-dicarboximido)ethylamino]-1-(3-nitro-5-azaphenanthrene-1, 10-dicarboximido)ethane Hydromethanesulfonate], for which the IC50 in data set [1] (Clone A cells, 72 hr, MTT) turned out to be 44 ng/mL; in data set [2] (L1210 cells, 72 hr, MTT), 20 ng/mL. Further, the inhibition in vivo at 12.5 mg/kg in the data set on DLD-2 human colon tumor (Mus musculus, DLD2, iv, 216 h, 12.5 mg/kg, i.v. once daily for nine days, nude mice, read-out: DLD-2 percent tumor growth inhibition) came to 0%. Moreover, in the data set “Solubility in water”, the solubility was found to be 10 µg/mL.
As for `CS(=O)(=O)O.O=C1c2cccc3c2c(cc2cccnc23)C(=O)N1CCCCNCCCN1C(=O)c2cccc3c2c(cc2cccnc23)C1=O` [Example 1, 4-[3-(5-Azaphenanthrene-1,10-dicarboximido)propylamino]-1-(5-azaphenanthrene-1,10-dicarboximido) butane Hydromethanesulfonate], the IC50 in data set [1] (Clone A cells, 72 hr, MTT) worked out at 60 ng/mL; in data set [2] (L1210 cells, 72 hr, MTT), 134 ng/mL. Further, the inhibition in vivo at 25 mg/kg with DLD-2 human colon tumor (Mus musculus, DLD2, iv, 216 h, 25 mg/kg, i.v. once daily for nine days, nude mice, read-out: DLD-2 percent tumor growth inhibition) stood at 16%. The compound further yielded a solubility in the data set “Solubility in water” of 2300 µg/mL.
